From patent publication US9427433B2, “Methods and compositions for enhancing fertility and/or inhibiting pregnancy failure and restoring glucose tolerance” (Queen's University at Kingston, priority 2011, dated 2016)

Experiments:
Assay type in all cases: in vivo, mouse
pregnant diabetic mice = assay: Fetal weight and intrauterine growth restriction (IUGR)
From the text: FIGS. 14A and 14B show representative fetal weights (FIG. 14A) and percent of dams with intrauterine growth restricted (IUGR) pups (FIG. 14B) as measured on day 18.5 of pregnancy in the tacrolimus-treated diabetic mice versus vehicle-treated diabetic dams and those normoglycemic control cohorts. Whiskers in FIG. 14A represent the 10th and 90th percentiles of fetal body weight. Pups with weights below the 10th percentile of the normoglycemic control were considered intrauterine growth restricted (IUGR) as indicated by the shaded region. […] Numbers in brackets in FIG. 14A represents number of pups examined. “n” denotes number of dams. p<0.05.

NOD and NZO mice = assay: Implantation rate and embryonic/fetal resorption after tacrolimus; details: short-term administration
Method: Fifty four NOD mice at the prediabetic and early diabetic stages were carefully selected to match the criteria of being 2 standard deviation heavier in body weight than their age-matched normoglycemic control mice and having blood glucose value of >14.9 mM/1 during the glucose tolerance test. The selected mice were 9 weeks old and were treated with 0.1 mg/kg q2d of tacrolimus (Prograf (5 mg/ml), Astellas) subcutaneously administered in 0.2 ml saline for three weeks after which animals were mated to males of the same strain (See FIG. 1). Vehicle (0.2 ml saline, s.q.) treated hyperglycemic NOD female mice were allowed two weeks in diabetes before they were mated to males of the same strain. […]
Twenty NZO and DIO/B6 female mice were maintained on a high fat diet consisted of 60% kcal fat, 20% kcal protein and 20% kcal carbohydrate, with a total energy mass of 5.24 kcal/gm (D12492, Research Diets Inc.; Cedarlane Laboratories, Burlington, Ontario, Canada) starting at 7 weeks of age and maintained on the diet for a total of 12 weeks of study period during which their weekly body weight changes and non-fasting blood glucose values were recorded. […]

NOD, NZO and DIO mice = assay: Ovarian function, serum estrogen/progesterone, follicle counts and uterine weight ratio
Method: Using Papanicolaou's staining kit (Sigma Aldrich, Oakville, Ontario, Canada), staining of vaginal smears obtained between 09:00-10:00 AM was performed to identify the phases of the estrous cycle and to establish the individual animal cycling pattern as previously described (Koss L. G (Ed): The Papanicolaou Stain. In Diagnostic Cytology and its Histopathological Bases. 4th Edit. Koss, Leopold; Melamed and Myron R. Eds. J.B. Lippincott Williams & Wilkins (LWW), Philadelphia. 1992; Vol. 2: 1211-1221). Blood and virgin uteri were collected from nulliparous diabetic NOD females, at the proestrus, estrus and the metestrus phase, respectively, after four weeks in diabetes. Blood and uteri were also collected from age-matched, tacrolimus-treated nulliparous NOD mice immediately after completing the treatment schedule.
Fifty four NOD mice at the prediabetic and early diabetic stages were carefully selected to match the criteria of being 2 standard deviation heavier in body weight than their age-matched normoglycemic control mice and having blood glucose value of >14.9 mM/1 during the glucose tolerance test. The selected mice were 9 weeks old and were treated with 0.1 mg/kg q2d of tacrolimus (Prograf (5 mg/ml), Astellas) subcutaneously administered in 0.2 ml saline for three weeks after which animals were mated to males of the same strain (See FIG. 1). Vehicle (0.2 ml saline, s.q.) treated hyperglycemic NOD female mice were allowed two weeks in diabetes before they were mated to males of the same strain. Facial (mandibular) venous blood samples were collected from treated animals at 24 and 48 hours between injections and at pregnancy days 0.5, 2.5, 4.5, 6.5, 8.5, 10.5, 12.5, 14.5, 16.5 and 18.5 respectively following a standard procedure for facial bleed in mice (Golde et al Lab Anim (NY) 2005 34:39-43).
Twenty NZO and DIO/B6 female mice were maintained on a high fat diet consisted of 60% kcal fat, 20% kcal protein and 20% kcal carbohydrate, with a total energy mass of 5.24 kcal/gm (D12492, Research Diets Inc.; Cedarlane Laboratories, Burlington, Ontario, Canada) starting at 7 weeks of age and maintained on the diet for a total of 12 weeks of study period during which their weekly body weight changes and non-fasting blood glucose values were recorded. Mice which became obese as defined by having a Body mass index (BMI) value of 30, and tested positive for glucose intolerance were selected for an initial treatment episode with tacrolimus after being fed for four weeks with the high fat diet (See FIG. 2). Tacrolimus (Prograf (5 mg/ml), Astellas) was administered subcutaneously in a dose of 0.1 mg/kg q2d in 0.2 ml saline for three weeks to the obese and glucose intolerant NZO and DIO mice starting at the age of 10 weeks after which animals were mated to males of the same strain and pregnancy was dated from the morning of the positive detection of vaginal (copulation) plug. Facial (mandibular) venous blood samples were collected from treated animals at 24 and 48 hours between injections and at pregnancy days 0.5, 2.5, 4.5, 6.5, 8.5, 10.5, 12.5, 14.5, 16.5 and 18.5, respectively, following a standard procedure for facial bleed in mice (Golde et al. Lab Anim (NY) 2005 34:39-43). A lean cohort of control B6 and BALBc mice was fed with a regular 10 kcal % control chow diet containing the same protein content as the high fat diet with a total energy mass of 3.1 kcal/g (D12450Bi, Cedarlane, Ontario). […]

[1] = short-term administration, FIG. 3B

C=CC[C@@H]1/C=C(\C)C[C@H](C)C[C@H](OC)[C@H]2O[C@@](O)(C(=O)C(=O)N3CCCC[C@H]3C(=O)O[C@H](/C(C)=C/[C@@H]3CC[C@@H](O)[C@H](OC)C3)[C@H](C)[C@@H](O)CC1=O)[C@H](C)C[C@@H]2OC [tacrolimus]
treated pregnant diabetic mice in which IUGR development was inhibited (pregnant diabetic mice; 0.1 mg/kg s.c. every other day, weeks 9-11 of age): 88%
fetal body weight (pregnant diabetic mice; day 18.5 of pregnancy, 0.1 mg/kg s.c. every other day, weeks 9-11 of age, p<0.05): significantly improved fetal body weight
pups born to diabetic dams rescued from inflammatory-mediated growth restriction (pregnant diabetic mice; short term administration): 88%
rates of embryonic and fetal resorption (NOD and NZO mice): reduced rates of embryonic and fetal resorption
implantation rate (NOD and NZO mice; pregnancy days 4.5 and 6.5): enhanced implantation rate
ovulation (NOD, NZO and DIO mice; 0.1 mg/kg q2d s.c. for three weeks): enhanced ovulation
ovarian secretion of estrogen and progesterone (NOD, NZO and DIO mice; 0.1 mg/kg q2d s.c. for three weeks, peri- and post-implantation): normalized ovarian secretion of estrogen and progesterone
uterine growth (uterine weight ratio) (NOD, NZO and DIO mice; early proliferative phase (proestrus) of estrous cycle, FIG. 3C): significant improvement in uterine growth
numbers of atretic follicles (NOD, NZO and DIO mice; [1]): reduced numbers of atretic follicles
numbers of secondary follicles, antral follicles and corpora lutea (NOD, NZO and DIO mice; [1]): increased numbers of secondary follicles (FIG. 3B: S), antral follicles (FIG. 3B: A) and corpora lutea (FIG. 3B: CL)
